Results on two compounds are retold here after article PMC7066271 (Clinical and Experimental Nephrology, 2020).

Series [1] in a line: Plasma pharmacokinetics of dotinurad, single 4 mg oral dose with and without oxaprozin, in healthy adult males. Format: in vivo, human. The method, then:
This was a single-center, open-label, two-period, sequential-group, add-on, drug-drug interaction study in healthy adult males conducted at a Japanese clinical pharmacology study center. Following a screening period ranging from 29 days before, to the day before the study drug administration (Day -1), eligible subjects were admitted to the study site on Day-1, received a single 4 mg oral dose of dotinurad in a fed state, and were discharged 48 h postdose. […] They underwent a follow-up examination between six and ten days after co-administration for safety evaluation. […] A blood sample was drawn, in the amount of 5 mL at each time point except for 10 mL at 4 h after drug administration, into a heparin-containing blood collection tube and centrifuged at 3000 rpm for 10 min at 4 °C. A plasma sample obtained at each time point was then stored at - 20 °C before shipping in a chilled condition with dry ice to Sekisui Medical Co., Ltd. (Ibaraki, Japan) for determination of plasma drug concentrations. […] Ultrafiltered plasma samples were used to determine unbound plasma concentrations of dotinurad by a validated LC-MS/MS method (LC:LC-20AD system, SHIMADZU. MS/MS: API4000, SCIEX). The LLOQ was 0.1 ng/mL.

A short description of series [2]: Urinary excretion (fe) of dotinurad metabolites with and without oxaprozin in healthy adult males. Format: in vivo, human. How it is done: (§1) This was a single-center, open-label, two-period, sequential-group, add-on, drug–drug interaction study in healthy adult males conducted at a Japanese clinical pharmacology study center. Following a screening period ranging from 29 days before, to the day before the study drug administration (Day -1), eligible subjects were admitted to the study site on Day-1, received a single 4 mg oral dose of dotinurad in a fed state, and were discharged 48 h postdose. […] They underwent a follow-up examination between six and ten days after co-administration for safety evaluation.
After the pH of the urine sample collected after each time interval was adjusted to ≤ 7.0, the sample was stored at – 20 °C before shipping in a chilled condition with dry ice to Fuji Yakuhin Co., Ltd. (Saitama, Japan) for determination of urinary concentrations of dotinurad’s metabolites.
Urinary concentrations of metabolites (glucuronate conjugates and sulfate conjugates) were determined by a validated LC-MS/MS method (LC: Nexera X2 and Prominence, SHIMADZU. MS/MS: Triple Quad 4500, SCIEX). The LLOQ was 10 ng/mL for both metabolites.

A short description of series [3]: Unbound fraction of dotinurad in plasma at the time of Cmax (ultrafiltered plasma, LC-MS/MS). Format: in vivo, human. The method, then:
(§2) Ultrafiltered plasma samples were used to determine unbound plasma concentrations of dotinurad by a validated LC–MS/MS method (LC:LC-20AD system, SHIMADZU. MS/MS: API4000, SCIEX). The LLOQ was 0.1 ng/mL.

For series [4], the system named is healthy adult males. Kind of series: Safety evaluation: adverse events in healthy adult males. Format: in vivo, human. Conditions: for Adverse events reported, all: by treatment period, causal relationship with study drugs ruled out; for Peritonsillar abscess, incidence / Peritonsillar abscess, number of events / Pharyngitis, incidence / Pharyngitis, number of events / Urine beta 2 microglobulin increased, incidence / Urine beta 2 microglobulin increased, number of events: healthy adult males, n = 12 for each drug alone, n = 11 for co-administration. The method, then:
as §1
Adverse events (AEs), a measure used for safety evaluation, were coded by preferred term using the Medical Dictionary for Regulatory Activities (MedDRA) version 20.1 (Japanese Maintenance Organization, Tokyo, Japan) and tabulated. The investigator observed/examined/assessed AEs, subjective symptoms and objective findings, vital signs, electrocardiography, and laboratory test values.
The safety analysis population included subjects who received at least one dose of dotinurad and who had data for safety evaluation.

In series [5] the test system is healthy adult males. As to the kind of experiment: Estimated glomerular filtration rate 24 h after dosing. Format: in vivo, human.
In series [6] the test system is human plasma protein. The arrangement: method as in earlier work. Conditions: cited from earlier work.
Series [7] concerns CYPs, UGTs, sulfotransferases, and drug transporters. Set-up: method as in earlier work. The note with it: at clinical doses, several in vitro studies; cited from earlier work.
The subject of series [8] is urate transporter 1 (URAT1). Set-up: method as in PMID 31371478, PMID 31754883. Conditions: cited from earlier work.
For series [9], the system named is ATP-binding cassette subfamily G member 2 (ABCG2). The arrangement: method as in PMID 31371478, PMID 31754883. Conditions: compared to probenecid, benzbromarone, and lesinurad; cited from earlier work.
Series [10] has as its system organic anion transporter (OAT) 1. The arrangement: method as in PMID 31371478, PMID 31754883. Conditions: compared to probenecid, benzbromarone, and lesinurad; cited from earlier work.
Series [11] deals with OAT3. The arrangement: method as in PMID 31371478, PMID 31754883. The note with it: compared to probenecid, benzbromarone, and lesinurad; cited from earlier work.
Series [12] can be described thus: Plasma oxaprozin concentrations before and 24 h after co-administration (steady-state check). Conditions: male, human, oral, 24 h after co-administration with dotinurad, n = 11. Format: in vivo. How it is done: A blood sample was drawn, in the amount of 5 mL at each time point except for 10 mL at 4 h after drug administration, into a heparin-containing blood collection tube and centrifuged at 3000 rpm for 10 min at 4 °C. A plasma sample obtained at each time point was then stored at – 20 °C before shipping in a chilled condition with dry ice to Sekisui Medical Co., Ltd. (Ibaraki, Japan) for determination of plasma drug concentrations.
as §2

The mark [13] stands for this setting: [dotinurad and oxaprozin]/[dotinurad alone], n = 11.
Where [14] appears, read: dotinurad 4 mg co-administered with oxaprozin 600 mg, fed, n = 11.
[15] abbreviates: dotinurad alone, single 4 mg oral dose, fed, n = 12.
Where [16] appears, read: male, human, plasma, dotinurad alone, single 4 mg oral dose, fed, n = 12.

`O=C(c1cc(Cl)c(O)c(Cl)c1)N1CS(=O)(=O)c2ccccc21` [Dotinurad, dotinurad]: in [1] (setting [13]), the “AUC0–inf, geometric mean ratio (90% CI)” value is 1.165 (1.114–1.219); the “CLtot/F, geometric mean ratio (90% CI)” value is 0.858 (0.820–0.898); the “Cmax, geometric mean ratio (90% CI)” value is listed as 0.982 (0.945–1.021); the “T1/2, geometric mean ratio (90% CI)” value is listed as 1.205 (1.176–1.236). In addition, in series [1] (setting [13]), the “Tmax, geometric mean ratio (90% CI)” value is 1.000 (0.844–1.185) and the “Vd/F, geometric mean ratio (90% CI)” value was 1.035 (0.999–1.071). The “Increase in AUC0–inf of dotinurad” value in [1] (co-administration with oxaprozin compared with dotinurad alone) came out at 16.5%. In addition, in series [1] (setting [14]), the “AUC0–inf, mean” value was found to be 4487 ng・h/mL and the “CLtot/F, mean” value was 0.901 L/h. Moreover, in series [1] (setting [15]), the “AUC0–inf, mean” value is given as 3846 ng・h/mL and the “CLtot/F, mean” value worked out at 1.065 L/h. In [1] (setting [16]), the Cmax is 0.271 µg/mL, the Tmax is 3.67 h and the Vd/F was 14.9 L. For the same compound, the half-life in series [1] (male, human, plasma, dotinurad alone, single 4 mg oral dose, fed, n = 12, read-out: T1/2, mean (converted)) was 9.85 h. In addition, the “Estimated increase in dotinurad exposure when co-administered with oxaprozin” value in [2] (assuming absence of compensatory enhancement of other metabolic pathways) is given as “approximately 13%”. Also, in series [2] (calculated from fe of glucuronate conjugates), the “Proportion of glucuronidation inhibited by co-administered oxaprozin in terms of the entire metabolism of dotinurad” value was 13.2%. Further, the “Unbound fraction in plasma at Cmax, geometric mean ratio (90% CI)” value in series [3] (setting [13]) is reported as 1.615 (1.454–1.794). Also, the fraction unbound in [3] (male, human, plasma, oral, dotinurad alone, 4 mg, n = 12) came out at 0.00534. Also, in series [4], the “Adverse events reported, all” value is “Two events occurred in two subjects”; the “Peritonsillar abscess, incidence” value came to 0.0%; the “Peritonsillar abscess, number of events” value came to 0; the “Pharyngitis, incidence” value was 8.3%. In addition, in series [4], the “Pharyngitis, number of events” value is on record as 1; the “Urine beta 2 microglobulin increased, incidence” value stood at 8.3%; the “Urine beta 2 microglobulin increased, number of events” value stood at 1. For the same compound, in series [5] (24 h after administration of dotinurad alone, n = 12), the “Estimated glomerular filtration rate (eGFR) (mean ± SD)” value is 100.9 ± 13.0 mL/min/1.73 m^2. In addition, in series [5] (24 h after co-administration with oxaprozin, n = 11), the “Estimated glomerular filtration rate (eGFR) (mean ± SD)” value is 93.3 ± 13.0 mL/min/1.73 m^2. Moreover, in series [6] (at clinical doses, in vitro), the “Effect on plasma protein binding rates of potentially co-administered drugs” value is “no effects”. Moreover, in series [7], the “Effect on CYPs, UGTs, sulfotransferases, and drug transporters” value is recorded as “no effects”. In series [8], the URAT1 inhibition entry was “potent URAT1 inhibitor”. In addition, in series [9], the “Effect on ABCG2” value is recorded as “minimal effect”. For the same compound, the “Effect on OAT1” value in series [10] is listed as “minimal effect”. Besides, the “Effect on OAT3” value in series [11] is “minimal effect”.

As to `O=C(O)CCc1nc(-c2ccccc2)c(-c2ccccc2)o1` [Oxaprozin, oxaprozin, reference compound], in series [4], the “Adverse events reported, all” value was “one event occurred in one subject”; the “Peritonsillar abscess, incidence” value came out at 8.3%; the “Peritonsillar abscess, number of events” value stood at 1; the “Pharyngitis, incidence” value was 0.0%. Moreover, in series [4], the “Pharyngitis, number of events” value came to 0; the “Urine beta 2 microglobulin increased, incidence” value worked out at 0.0%; the “Urine beta 2 microglobulin increased, number of events” value was 0. The concentration at 24 h in [12] came out at 102 ± 10.4 µg/mL. Further, the “Effect on plasma protein binding rate of dotinurad” value in [6] (human plasma, ultrafiltration method) was “lower the plasma protein binding rate of dotinurad”.

The term Cmax denotes the peak of the concentration-time curve. The term Tmax denotes the time from dosing to the highest level. As usually defined, the Vd/F is the volume of distribution divided by bioavailability. The term fraction unbound denotes the share of the substance not bound to proteins or other matrix.
